The nature of test [1]: DPPH radical scavenging experiment. The class given is biochemical. The note with it: for DPPH Radical Scavenging Rate: 500 mg/L aqueous sample solution mixed 1:1 with 0.04 mg/ml DPPH ethanol solution, dark, 517 nm. The text has this: Free radicals play a significant role, either directly or indirectly, in oxidative processes and are widely involved in the physiological and pathological processes of the body. When the body has an excess of free radicals, the body damage can be caused by free radicals through oxidative actions. Phenolic compounds, being donors of phenolic hydroxyl groups, form the structural basis for antioxidant activity. This experiment employs the DPPH [1,1-Diphenyl-2-trinitrophenyl hydrazine, also known as 1,1-Diphenyl-2-picrylhydrazyl, (free radical)] radical scavenging reaction to study the scavenging efficiency of α-salidroside and β-salidroside on DPPH radicals. • (1) α-salidroside solution: prepared as a 500 mg/L aqueous solution using conventional methods. • (2) β-salidroside solution: prepared as a 500 mg/L aqueous solution using conventional methods. • (3) DPPH ethanol solution: prepared as a 0.04 mg/ml solution in anhydrous ethanol using conventional methods. • (1) 0.9 mL each of α-salidroside solution and β-salidroside aqueous solution were taken separately, and 0.9 mL of DPPH anhydrous ethanol solution was added to each, mixed well, and then left to stand in the dark. Samples were taken at 0.5 h, 1 h, 2 h, and 4 h respectively, and the absorbance was measured at a wavelength of 517 nm. The average of three parallels was calculated and noted as Ai. • (2) 0.9 mL each of α-salidroside solution and β-salidroside aqueous solution were taken separately, and 0.9 mL of anhydrous ethanol was added to each, mixed well, and then left to stand in the dark […]. Samples were taken at 0.5 h, 1 h, 2 h, and 4 h respectively, and the absorbance was measured at a wavelength of 517 nm. The average of three parallels was calculated and noted as Aj. • (3) 0.9 mL of distilled water was taken, to which 0.9 mL of DPPH ethanol solution was added, mixed well, and the absorbance was measured at a wavelength of 517 nm. The average of three parallels was calculated and noted as A4. • (4) 0.9 mL of anhydrous ethanol was taken, to which 0.9 mL of distilled water was added, mixed well, and was used as a blank. The DPPH radical scavenging rate was calculated according to the formula below, and the results were recorded in Table 3. [formula]
(In general: DPPH is a stable violet radical that fades when it is reduced.)

Test [2] can be described thus: Hydroxyl radical scavenging experiment (Fenton reaction, 1,10-phenanthroline spectrophotometry). It counts as biochemical. To be noted: for Hydroxyl Radical Scavenging Rate: 37° C., 30 minutes, 536 nm. The text has this:
The Hydroxyl Radical Scavenging Activity is an important indicator for measuring the antioxidant capacity of substances. Currently, the main analytical testing methods for hydroxyl radicals include High Performance Liquid Chromatography, Chemiluminescence, Fluorescence Analysis, and Spectrophotometry, etc. Among them, the most commonly used method for measuring the hydroxyl radical scavenging activity is Spectrophotometry, which can be used to determine the inhibition of the absorbance decline of the colorant 1,10-Phenanthroline by the sample, thereby reflecting the ability of the sample to scavenge hydroxyl radicals. The measurement principle is as follows: H2O2/Fe^2+ produces hydroxyl radicals through the Fenton reaction, oxidizing Fe^2+ in the 1,10-Phenanthroline-Fe^2+ aqueous solution to Fe^3+, leading to a decline in the absorbance at 536 nm. The degree to which the sample inhibits the rate of absorbance decline at 536 nm reflects the ability of the sample to scavenge hydroxyl radicals.
• (1) FeSO4 Solution: 1.5 mM and 5 mM FeSO4 aqueous solutions were prepared using conventional methods. • (2) PBS Buffer: • 1) 0.2 mol/L sodium dihydrogen phosphate and 0.2 mol/L disodium hydrogen phosphate aqueous solutions were prepared. • 2) 19 mL of sodium dihydrogen phosphate aqueous solution and 81 mL of disodium hydrogen phosphate aqueous solution were taken, mixed well, and the pH was adjusted to 7.4 (measured with a pH meter, and the pH value was adjusted with 0.1 mol/L sodium hydroxide or 0.1 mol/L phosphoric acid if necessary). • (3) 1,10-Phenanthroline: 0.75 mM and 3 mM aqueous solutions were prepared using conventional methods. • (4) Hydrogen Peroxide (H2O2) Solution: 0.1% (v/v) aqueous solution was prepared using conventional methods. • (5) α-salidroside Solution: 1 mg/mL and 4 mg/mL aqueous solutions were prepared using conventional methods. • (6) β-salidroside Solution: 1 mg/mL and 4 mg/mL aqueous solutions were prepared using conventional methods.
Scheme 1: Using 5 mM FeSO4 aqueous solution, 0.1% hydrogen peroxide, 1 mg/mL α-salidroside aqueous solution or 1 mg/mL β-salidroside aqueous solution, and 3 mM 1,10-Phenanthroline aqueous solution, the following operation steps were carried out for the reaction.
Scheme 2: Using 1.5 mM FeSO4 aqueous solution, 0.1% hydrogen peroxide, 4 mg/mL α-salidroside aqueous solution or 4 mg/mL β-salidroside aqueous solution, and 0.75 mM 1,10-Phenanthroline aqueous solution, the following operation steps were carried out for the reaction.
Specific Operation Steps: (1) 40 μL of α-salidroside solution or β-salidroside solution was taken separately, to which 40 μL of FeSO4 solution, 60 μL of PBS buffer solution (pH 7.4), and 40 μL of 1,10-Phenanthroline solution were added respectively, mixed well. Then, 40 μL of H2O2 solution was added and mixed well again. […] Using distilled water as blank, the absorbance at 536 nm wavelength was measured and the average of three parallels was calculated and noted as Ai.
(2) 80 μL of distilled water was taken, to which 40 μL of FeSO4 solution, 60 μL of PBS buffer solution (pH 7.4), and 40 μL of 1,10-Phenanthroline solution were added and mixed well. […] Using distilled water as blank, the absorbance at 536 nm wavelength was measured and the average of three parallels was calculated and noted as Aj. […] Using distilled water as blank, the absorbance at 536 nm wavelength was measured and the average of three parallels was calculated and noted as A0.

[3] abbreviates: Scheme 1: 1 mg/mL sample solution, 5 mM FeSO4, 0.1% hydrogen peroxide, 3 mM 1,10-Phenanthroline.
[4] abbreviates: Scheme 2: 4 mg/mL sample solution, 1.5 mM FeSO4, 0.1% hydrogen peroxide, 0.75 mM 1,10-Phenanthroline.

Each structure is given as a SMILES string.

For `OC[C@H]1O[C@@H](OCCc2ccc(O)cc2)[C@H](O)[C@@H](O)[C@@H]1O` [β-salidroside, reference compound], the “DPPH Radical Scavenging Rate” value in test [1] (0.5 h) is 19.96%; in test [1] (1 h), 23.21%; in test [1] (2 h), 28.24%; in test [1] (4 h), 28.33%. Also, the entries for the “Hydroxyl Radical Scavenging Rate” value in test [2] (setting [3]) and in test [2] (setting [4]) were 13.92% and 4.05%, respectively.
`OC[C@H]1O[C@H](OCCc2ccc(O)cc2)[C@H](O)[C@@H](O)[C@@H]1O` [α-salidroside, 2-(4-hydroxyphenyl) ethyl-α-D-glucopyranoside]: the “DPPH Radical Scavenging Rate” value was 19.29% in test [1] (0.5 h), 28.45% in test [1] (1 h), 31.00% in test [1] (2 h) and 34.12% in test [1] (4 h). Moreover, the “capability of scavenging DPPH radicals compared to β-salidroside” value in test [1] (in words, from Table 3, especially when the reaction time is over 1 hour) is listed as “higher capability of scavenging DPPH radicals compared to β-salidroside”. Moreover, the “Hydroxyl Radical Scavenging Rate” value in test [2] (setting [3]) was 28.69%; in test [2] (setting [4]) it was 21.62%. The “capability in scavenging hydroxyl radicals compared to β-salidroside” value in test [2] (in words, from Table 4, both schemes) is on record as “far superior to that of β-salidroside”.
